Source: PubChem BioAssay (NCI)
Values after ≈ are worked out from the molar mass of the structure shown. Values joined by “and” are separate entries in the source; they are usually repeats but may differ in a detail not shown here. Equal entries are not always repeated.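 How tested: cells in 96-well plates exposed to compound for 48 hours at five concentrations. GI50: concentration for 50% inhibition of growth. TGI: concentration producing complete growth inhibition.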

Tests used:
Assay in all cases: NCI tumour cell line growth inhibition, 48 h
NCI-H226 lung = test system: NCI-H226 lung
NCI-H23 lung = test system: NCI-H23 lung
NCI-H460 lung = test system: NCI-H460 lung
NCI-H522 lung = test system: NCI-H522 lung
OVCAR-3 ovarian = test system: OVCAR-3 ovarian
OVCAR-4 ovarian = test system: OVCAR-4 ovarian
OVCAR-5 ovarian = test system: OVCAR-5 ovarian
OVCAR-8 ovarian = test system: OVCAR-8 ovarian
PC-3 prostate = test system: PC-3 prostate
RPMI-8226 leukemia = test system: RPMI-8226 leukemia
RXF 393 renal = test system: RXF 393 renal
SF-268 CNS = test system: SF-268 CNS
SF-295 CNS = test system: SF-295 CNS
SF-539 CNS = test system: SF-539 CNS
SK-MEL-2 melanoma = test system: SK-MEL-2 melanoma
SK-MEL-28 melanoma = test system: SK-MEL-28 melanoma
SK-MEL-5 melanoma = test system: SK-MEL-5 melanoma
SK-OV-3 ovarian = test system: SK-OV-3 ovarian
SN12C renal = test system: SN12C renal
SNB-19 CNS = test system: SNB-19 CNS
SNB-75 CNS = test system: SNB-75 CNS
SR leukemia = test system: SR leukemia
SW-620 colon = test system: SW-620 colon
T-47D breast = test system: T-47D breast
TK-10 renal = test system: TK-10 renal
U251 CNS = test system: U251 CNS
UACC-257 melanoma = test system: UACC-257 melanoma
UACC-62 melanoma = test system: UACC-62 melanoma
UO-31 renal = test system: UO-31 renal

SMILES: COc1cccc2c1C(=O)c1c(O)c3c(c(O)c1C2=O)CC(O)(C(=O)CO)CC3OC1CC(N)C(O)C(C)O1 (configuration not stated)
- TGI (NCI-H226 lung): 12.6 µg/mL and 28.5 µg/mL
- GI50 (NCI-H23 lung): 11.3 µg/mL and 49.1 µg/mL
- TGI (NCI-H23 lung): 75 µg/mL and > 150 µg/mL
- GI50 (NCI-H460 lung): 0.709 µg/mL and 0.986 µg/mL
- TGI (NCI-H460 lung): 75 µg/mL and 27.3 µg/mL
- GI50 (NCI-H522 lung): 4.07 µg/mL (≈ 7.49 µM)
- TGI (NCI-H522 lung): 75 µg/mL (≈ 138 µM)
- GI50 (OVCAR-3 ovarian): 22.6 µg/mL and 35.8 µg/mL
- TGI (OVCAR-3 ovarian): 75 µg/mL and > 150 µg/mL
- GI50 (OVCAR-4 ovarian): 46.6 µg/mL and > 150 µg/mL
- TGI (OVCAR-4 ovarian): 75 µg/mL and > 150 µg/mL
- GI50 (OVCAR-5 ovarian): 75 µg/mL and > 150 µg/mL
- TGI (OVCAR-5 ovarian): 75 µg/mL and > 150 µg/mL
- GI50 (OVCAR-8 ovarian): 19.5 µg/mL and 45.7 µg/mL
- TGI (OVCAR-8 ovarian): 75 µg/mL and > 150 µg/mL
- GI50 (PC-3 prostate): 37.2 µg/mL and 52.2 µg/mL
- TGI (PC-3 prostate): 75 µg/mL and > 150 µg/mL
- GI50 (RPMI-8226 leukemia): 7.24 µg/mL and 13.2 µg/mL
- TGI (RPMI-8226 leukemia): 75 µg/mL and 112 µg/mL
- GI50 (RXF 393 renal): 13.3 µg/mL and > 150 µg/mL
- TGI (RXF 393 renal): 75 µg/mL and > 150 µg/mL
- GI50 (SF-268 CNS): 7.5 µg/mL (≈ 13.8 µM)
- TGI (SF-268 CNS): 75 µg/mL (≈ 138 µM)
- GI50 (SF-295 CNS): 18.6 µg/mL and 14.3 µg/mL
- TGI (SF-295 CNS): 75 µg/mL and 116 µg/mL
- GI50 (SF-539 CNS): 38.3 µg/mL and 18.8 µg/mL
- TGI (SF-539 CNS): 75 µg/mL and 94.8 µg/mL
- GI50 (SK-MEL-2 melanoma): 24.1 µg/mL and 44.3 µg/mL
- TGI (SK-MEL-2 melanoma): 75 µg/mL and 138 µg/mL
- GI50 (SK-MEL-28 melanoma): 33.8 µg/mL and 44.8 µg/mL
- TGI (SK-MEL-28 melanoma): 75 µg/mL and > 150 µg/mL
- GI50 (SK-MEL-5 melanoma): 4.76 µg/mL and 15.7 µg/mL
- TGI (SK-MEL-5 melanoma): 23.4 µg/mL and 44.8 µg/mL
- GI50 (SK-OV-3 ovarian): 22.6 µg/mL and 14.9 µg/mL
- TGI (SK-OV-3 ovarian): 75 µg/mL and 143 µg/mL
- GI50 (SN12C renal): 14.4 µg/mL and 13 µg/mL
- TGI (SN12C renal): 75 µg/mL and > 150 µg/mL
- GI50 (SNB-19 CNS): 2.04 µg/mL and 54.6 µg/mL
- TGI (SNB-19 CNS): 75 µg/mL and > 150 µg/mL
- GI50 (SNB-75 CNS): 9.12 µg/mL and 51.1 µg/mL
- TGI (SNB-75 CNS): 55 µg/mL and > 150 µg/mL
- GI50 (SR leukemia): 0.465 µg/mL and 1.18 µg/mL
- TGI (SR leukemia): 7.2 µg/mL and 6.76 µg/mL
- GI50 (SW-620 colon): 7.14 µg/mL and 21.2 µg/mL
- TGI (SW-620 colon): 75 µg/mL and > 150 µg/mL
- GI50 (T-47D breast): 7.53 µg/mL and 54.8 µg/mL
- TGI (T-47D breast): 73.9 µg/mL and > 150 µg/mL
- GI50 (TK-10 renal): 75 µg/mL and 30 µg/mL
- TGI (TK-10 renal): 75 µg/mL and > 150 µg/mL
- GI50 (U251 CNS): 2.22 µg/mL and 6.15 µg/mL
- TGI (U251 CNS): 75 µg/mL and 44 µg/mL
- GI50 (UACC-257 melanoma): 29.9 µg/mL and 25.1 µg/mL
- TGI (UACC-257 melanoma): 75 µg/mL and 113 µg/mL
- GI50 (UACC-62 melanoma): 7.54 µg/mL and 18.6 µg/mL
- TGI (UACC-62 melanoma): 27.8 µg/mL and 62 µg/mL
- GI50 (UO-31 renal): 59 µg/mL and > 150 µg/mL
- TGI (UO-31 renal): 75 µg/mL and > 150 µg/mL
